From patent US20050020687A1, “Methods of treating inflammatory and viral disorders by administering cyclopentenone compounds” (priority 1996, published 2005)
“Also recorded” adds a separate entry of the source. Like-named read-outs stand apart in the source and are kept apart here.

Columns and labels:
NF-κB = experiment: TPA-induced NF-κB activation by EMSA in Jurkat cells; settings: for IC90: read-out: NF-κB inhibition IC90, TPA 25 ng/ml; for TPA-induced NF-κB activation at 500 μM: 500 μM for 1 hour then TPA 25 ng/ml; for concentrations found to inhibit NF-κB activation: FIG. 10
Protocol: (§1) Three hours after treatment, whole cell extracts were prepared and analyzed by EMSA (Electrophoretic Mobility Shift Assay) as described in Amici et al., 1995, supra. After a 20 minute incubation at room temperature, HSF-HSE or NF-κB-DNA-complexes were analyzed by nondenaturing 4% polyacrylamide gel electrophoresis and autoradiography. The amount of shifted HSE probe and NF-κB probe, an indicator of HSF DNA-binding activity and NF-κB activity, respectively, were quantitated by Molecular Dynamics Phospholmager (MDP) analysis.
(§2) At different times or three hours after treatment, whole cell extracts were prepared and analyzed by EMSA (Electrophoretic Mobility Shift Assay) as described in Amici et al., 1995, supra. Briefly, extracts (10 μg/sample) were mixed with 0.1 ng of a ^32P-NF-κB element or ^32P—HSE oligonucleotide and 0.5 μg of poly(dI-dC) (Pharmacia Biotech Inc.) in 25 μl of binding buffer (10 nM Tris-Cl, pH 7.8, 50 mM NaCl, 1 mM EDTA, 0.5 mM dithiothreitol, 5% glycerol). After a 20 minute incubation at room temperature, HSF-HSE or NF-κB-DNA-complexes were analyzed by nondenaturing 4% polyacrylamide gel electrophoresis and autoradiography. The amount of shifted HSE probe and NF-κB probe, an indicator of HSF DNA-binding activity and NF-κB activity, respectively, were quantitated by Molecular Dynamics Phospholmager (MDP) analysis.
(§3) Jurkat cells were incubated with the compounds listed in Table 1 (infra) or reference diluent at different concentrations for 1 hour and then were stimulated with TPA (25 ng/ml). After 1 hour at 37° C. the whole-cell extracts were prepared and subjected to EMSA to determine NF-κB and HSF activation. The levels of binding-DNA activity of NF-κB were quantified with Molecular Dynamics Phosphorlmager analysis.

[1] = test system: vesicular stomatitis virus (VSV), Indiana serotype (Orsay); format: cell-based; settings: MA104 cells
VSV proteins = format: cell-based, vesicular stomatitis virus; settings: VSV-infected MA104 cells, [35S]-methionine, SDS-PAGE
[2] = test system: heat shock transcription factor (HSF); experiment: HSF activation by EMSA in Jurkat cells; settings: for HSF activation at 500 μM: 500 μM for 1 hour then TPA; for concentrations found to activate HSF: TPA 25 ng/ml, FIG. 10
Protocol: as §1, §2, §3

HSP70 [3] = experiment: HSP70 and total protein synthesis in K562 cells ([35S]-methionine); settings: 500 μM
Protocol: K562 cells treated with 500 μM 2 cyclopenten-1-one for different times were pulse-labeled with L-[^35S]-methionine (10 μCi/10^6 cells) for 1 hour. Cells were washed with phosphate buffered saline (PBS) and lysed with 400 μl of lysis buffer (20 nM Tris-Ci, pH 7.4, 0.1 M NaCl, 5 mM MgCl2, 1% Nonidet P-40, 0.5% SDS) containing protease inhibitors. After cell lysis, the radioactivity incorporated into trichloroacetic acid-insoluble material was determined, and an aliquot of samples containing the same amount of radioactivity were analyzed by 10% SDS-PAGE and autoradiography. HSP70 synthesis was determined by densitometric analysis of the autoradiograms. Total protein synthesis was determined as [^35S]-methionine incorporation into TCA-insoluble material (Amici et al., 1993, Exp. Cell. Res. 207. 230-234).

[4] = test system: heat shock transcription factor (HSF); experiment: HSF activation by EMSA in K562 cells; settings: 500 μM
Protocol: K562 human erythroleukemia cells, monolayers of monkey kidney cells (MA104 cells), and Jurkat cells were grown in RPMI 1640 medium supplemented with 10% fetal calf serum and antibiotics at 37° C. in a 5% CO2 humidified atmosphere (Amici et al., 1995, Cancer Research 55: 14452-4457).
At different times following 2-cyclopenten-1-one treatment or 3 hours following heat shock, whole cell extracts were prepared and analyzed by EMSA (Electrophoretic Mobility Shift Assay) as described in Amici et al., 1995, supra.

HSP70 gene transcription = experiment: Transcription run-on assay in isolated K562 nuclei
Protocol: In vitro run-on transcription reactions were performed in isolated K562 nuclei as described in Banerji et al, 1984, Mol. Cell. […] The vector plasmid (pBluescript) was used as a non-specific hybridization control. Following hybridization, the filters were visualized by autoradiography and the radioactivity was quantitated by MDP analysis. The values are expressed as arbitrary units obtained by comparing transcription rates to control levels.

[5] = test system: HSP90 and HSP70 gene transcription; experiment: Transcription run-on assay in isolated Jurkat nuclei; format: cell-based, human
[6] = test system: Influenza A virus A/PR8/34 (H1N1) (PR8 virus); experiment: PR8 influenza virus replication in MDCK cells (HAU and CPE50%); format: cell-based
HSP70 [7] = experiment: Cellular and heat shock protein synthesis in MDCK cells; format: cell-based, canine
PR8 virus = experiment: Virus titer in the lungs of PR8-infected mice; format: in vivo, Balb/c mice; settings: 10 μg/mouse/day i.p., four days after infection with 1 HAU PR8 virus/mouse
[8] = 10 μg/day/mouse i.p., for 4 days
[9] = test system: PR8 influenza virus proteins; format: cell-based, Influenza A virus
PR8 influenza virus = experiment: Survival and body weight of PR8-infected Balb/c mice; format: in vivo

With CC(=O)NC(Cc1ccccc1)C(=O)Oc1ccc2ccccc2c1 (racemic) [APNE, N-acethyl-DL-phenylalanine-β-napthylester] the IC90 (NF-κB) was 300 µM.
For O=C1C=CCC1 [2-cyclopenten-1-one], the “inhibition of production of VSV infectious particles with respect to control” value (“inhibition of production … to control” below) ([1]; 24 h p.i., lower end of 100-500 μM) was 10 times, the “inhibition of production … to control” value ([1]; 24 h p.i., upper end of 100-500 μM) was “more than 1000 times” and the “effect on VSV protein synthesis” value (VSV proteins) was “selective block of the viral protein synthesis”. For the same molecule, the “HSF activation at 500 μM” value ([2]; EMSA) was “detected”, the “HSF activation at 125 μM” value ([2]; same samples as NF-κB EMSA) was “detectable” and the “HSP70 protein synthesis versus cellular protein synthesis” value (HSP70 [3]) was “selectively stimulate HSP70 protein synthesis”. The “TPA-induced NF-κB activation at 500 μM” value (NF-κB) was “not detectable; also recorded: inhibits TPA-induced NF-κB activation”, the “lowest concentration inhibiting NF-κB activation by TPA” value (NF-κB; TPA 25 ng/ml) was 125 µM and the “less activated HSF at 24 hours than at 9 hours after treatment” value [4] was “Approximately 50%”. The “time after treatment at which activation of HSF was detected” value [4] was 1.5 h, the “time after treatment of maximum levels of HSF activation” value [4] was 9 h and the “HSP70 mRNA transcription by 24 hours after treatment” value (HSP70 gene transcription) was “decreased”. For the same molecule, the “time after treatment at which HSP70 mRNA transcription was detected” value (HSP70 gene transcription) was 1.5 h, the “time after treatment at which HSP70 transcription rates were maximal” value (HSP70 gene transcription) was 6 to 9 h and the “transcription of other stress proteins (HSC70, GRP78/BiP, heme-oxygenase)” value (HSP70 gene transcription) was “not affected”.
With O=c1oc(Cl)c(Cl)c2ccccc12 [DCIC, 3,4-dichloro-iso-coumarine] the “HSP90 and HSP70 mRNA transcription by 24 hours after treatment” value [5] was “decreased”, the “selectivity of stress protein induction (HSP90, Grp78, HSC70, HSP70)” value [5] was “selectively induces the expression of HSP90 and HSP70” and the “time after treatment at which HSP90 and HSP70 mRNA transcription were detected” value [5] was 1 h. The “time after treatment at which HSP90 and HSP70 transcription rates were maximal” value [5] was “about 3 hours”, the “inhibition of production … to control” value ([1]; lower end of 5-45 μM) was 50% and the “inhibition of production … to control” value ([1]; upper end of 5-45 μM) was “more than 98%”. The “effect on VSV protein synthesis” value (VSV proteins) was “selective block of the viral protein synthesis”, the “duration of HSF activation following initiation of treatment” value ([2]; 5 μM, EMSA) was 12 h and the “time after treatment at which activation of HSF was detected” value ([2]; 5 μM, EMSA) was 1 h. The “time after treatment of maximum levels of HSF activation” value ([2]; 5 μM, EMSA) was 3 h, the “concentrations found to activate HSF” value ([2]; EMSA) was 5 to 10 µM and the “concentrations found to inhibit NF-κB activation” value (NF-κB; TPA 25 ng/ml) was 5 to 10 µM. It also gave an IC90 (NF-κB) of 5.5 µM.
In the case of CCCCC[C@H](O)/C=C/[C@H]1C=CC(=O)[C@@H]1CCCCCCC(=O)O [PGA1, Prostaglandin A1], the “effect on PR8 virus replication, comparison of prostaglandins” value [6] is reported as “only modestly and transiently inhibited” and the “decrease of PR8 virus yield up to 48 hours p.i.” value ([6]; MDCK cells, 10 μg/ml, data not shown) is reported as “more than 90 % of control”.
With O=C1CCCC1 [cyclopentanone, reference compound] the “HSF activation at 500 μM” value ([2]; EMSA) was “not detected” and the “TPA-induced NF-κB activation at 500 μM” value (NF-κB) was “do not inhibit NF-κB activation”.
With C1=CCCC1 [cyclopentene, reference compound] the “HSF activation at 500 μM” value ([2]; EMSA) was “not detected” and the “TPA-induced NF-κB activation at 500 μM” value (NF-κB) was “do not inhibit NF-κB activation”.
For CCCCCC(O)C/C=C1/C(=O)C=CC1C/C=C\CCCC(=O)O (stereo not drawn) [Δ^12-PGJ2, 9-deoxy-Δ^9,Δ^12-13,14-dihydro-PGD2], the “time after treatment at which HSP70 synthesis was detectable” value (HSP70 [7]) was 3 h, the “time for which HSP70 synthesis continued to be detectable” value (HSP70 [7]) was “at least 12 hours” and the “synthesis of HSP90” value (HSP70 [7]; MDCK cells, 6 μg/ml) was “enhanced”. For the same molecule, the “synthesis of HSC70 and HSP70” value (HSP70 [7]; MDCK cells, 6 μg/ml, SDS-PAGE and immunoblot) was “markedly induced”, the “protein synthesis in uninfected cells” value (HSP70 [7]; uninfected MDCK cells, 6 μg/ml, 24 hours) was “modest reduction” and the “virus titer in the lungs” value (PR8 virus) was 0.07±0.03×10^4 CPE50% units/gr of lung tissue. For the same molecule, the signs of toxicity [8] was “did not show any sign of toxicity”, the “loss of body weight in infected animals” value ([8]; data not shown) was “reduced” and the PR8 protein synthesis [9] was “dramatic reduction”. The “viral proteins by immunoblot analysis at 24 hours p.i.” value [9] was “not detectable”, the “uptake of precursors and DNA and RNA synthesis” value (MDCK cells) was “did not inhibit either the uptake of precursors or DNA and RNA synthesis” and the “virus-induced inhibition of cellular RNA synthesis” value (MDCK cells) was “prevented”. The mouse survival (PR8 influenza virus; 1 μg/day/mouse i.p. for 7 days, FIG. 15A) was “no effect on mouse survival”, the “survival of the animals” value (PR8 influenza virus; 5 μg/day/mouse i.p. daily for 7 days, FIG. 15B) was 60% and the “mice survival on day 25 p.i.” value (PR8 influenza virus; 5 μg/day/mouse i.p. for 7 days, FIG. 15A) was 50%. For the same molecule, the “survival of the animals” value (PR8 influenza virus; 5 μg/day/mouse i.p. on days 0, 2 and 4, FIG. 15B) was “approximately 30%”, the “body weight at 7 days p.i.” value (PR8 influenza virus; PR8-infected mice, 7-day treatment, 5 μg/day/mouse) was 18.25 ± 0.68 g and the “PR8 virus yield at concentrations higher than 6 μg/ml” value [6] was “not detectable”. For the same molecule, the “PR8 virus yield in HAU” value [6] was 0 HAU, the “effect on PR8 virus replication, comparison of prostaglandins” value [6] was “most effective cyclopentenone prostaglandin” and the infectious virus titer [6] was 3.2+0.6×10^1 CPE5O % units/ml. The “inhibition of PR8 virus production” value [6] was “greater than 95 % of control”, the “reduction of infectious virus titers” value [6] was “more than 99 % of control” and the “period for which antiviral activity is sustained” value ([6]; MDCK cells, 6 μg/ml) was “at least 72 hours p.i”. The “inhibition of PR8 virus replication up to 72 h p.i.” value ([6]; MDCK cells, single treatment with 6 μg/ml) was “more than 95%”.
In the case of “Nα-tosyl-lysine-chloromethylketone [TLCK]”, the “concentrations found to activate HSF” value ([2]; EMSA) is reported as 30 to 75 µM, the “concentrations found to inhibit NF-κB activation” value (NF-κB; TPA 25 ng/ml) is reported as 30 to 75 µM and the IC90 (NF-κB) is reported as 135 µM.
For “tosyl-L-phenylalanine-chloromethylketone [TPCK]”, the “concentrations found to activate HSF” value ([2]; EMSA) was 12.5 to 25 µM, the “concentrations found to inhibit NF-κB activation” value (NF-κB; TPA 25 ng/ml) was 12.5 to 25 µM and the IC90 (NF-κB) was 12 µM.
